Assay results: US8273775B2, “Non-steroidal brassinosteroid mimetic” (priority 2006, dated 2012)

What was measured:
[1] = system: BR-biosynthetic, BR signaling and BR-induced genes; assay: Real time PCR of BR pathway genes; format: in vivo, Arabidopsis thaliana
Description: FIG. 7: Q-PCR analysis of genes involved in BR biosynthesis. WT Arabidopsis plants were treated with abrasin (indicated as I5) for 2 hours at a concentration of 30 μM and/or with CHX at a concentration of 30 μM and RNA was extracted from whole plants.
FIG. 8: A: Western Blot analysis of the BES1 protein in 35S:BES1:GFP plants treated with BL and abrasin (indicated as I5 throughout the figure) (A); MG132 with BL or abrasin (B); a time course with abrasin (C) and a concentration gradient with abrasin (D). B: Abrasin and BL induce similar transcriptional regulation of the BR pathway.
RNA was extracted with the RNeasy kit. Poly(dT) cDNA was prepared from […] of total RNA with Superscript III reverse transcriptase (Invitrogen) and quantified on an LightCycler 480 apparatus (Roche) with the SYBR Green I Master kit (Roche) according to the manufacturer's instructions. Target quantifications were performed with specific primer pairs designed with the Beacon Designer 4.0 (Premier Biosoft International). All PCRs were performed in triplicate.
The primers used to quantify gene expression levels were for BAS 1: 5′-[…]-3′ and 5′-[…]-3′; BR6Ox1: 5′-TGGCCAATCTTTGGCGAA-3′ and 5′-[…]-3′; BR6Ox2: 5′-[…]-3′ and 5′-[…]-3′; BRI1: 5′-[…]-3′ and 5′-[…]-3′; CPD: 5′-[…]-3′ and 5′-[…]-3′; DWF4: 5′-[…]-3′ and 5′-[…]-3′ ROT3: 5′-ATTGGCGCGTTCCTCAGAT-3′ and 5′-[…]-3′; BES1: 5′-[…]-3′ and 5′-[…]-3′; BIN2: 5′-[…]-3′ and 5′-[…]-3′; BSU 1: 5′-[…]-3′ and 5′-[…]-3′; BZR1: 5′-[…]-3′ and 5′-[…]-3′; CDKA1; 1: 5′-[…]-3′ and 5′-[…]-3′; EEF1α: 5′-[…]-3′ and 5′-[…]-3′; BKI1: 5′-GCTCCGGCGTCGATGA-3′ and 5′-[…]-3′.

[2] = system: Arabidopsis thaliana seedlings; assay: Lateral root formation / root elongation of seedlings on agar plates; format: in vivo; settings: Arabidopsis thaliana; read-out: root elongation and lateral root development inhibited, EC50-value
Description: FIG. 3: (A) Phenotypic characterization. WT plants were grown under standard conditions on agar plates. […] Left panel: control plant. Middle panel: abrasin treated plant. Right panel: BL treated plant. (B) Dose response measurements of abrasin using lateral root formation as an indicator of brassinosteroid like activity. Error bars represent standard error of the mean. […] Osram) at 22° C. Three days after germination compounds were added to the 96-well plates at a final concentration of 50 μM. Plants were screened six days after germination for brassinosteroid-related phenotypes. For further phenotypical analysis, all plants were grown on vertically oriented square plates (Greiner Labortechnik, Austria) with solid medium derived from standard Murashige and Skoog medium under the same conditions. For the hypocotyl-elongation assay, plants were grown in the dark at 22° C. under the same conditions.

[3] = system: bri1-116 plants grown in soil; assay: Rescue of soil-grown mutants by watering; format: in vivo, Arabidopsis thaliana; settings: watered with 2 ml 300 μM ABRASIN per day
Description: FIG. 15: Phenotype rescue of brit-116 and cpd mutants. (A.) The mutant and Col-0 plants were germinated on MS+DMSO medium till day 5 and afterwards transferred on MS supplemented with DMSO, 1 μM BL or 30 μM ABRASIN until day 11. Treatment with BL rescues the cpd mutant phenotype but not bri1-116 while ABRASIN rescues both mutants. […] BL: brassinolide; BIK: abrasin.
Col-0, the null BR signaling bri1-116 (Friedrichsen et al., 2000) and BR biosynthetic cpd (Szekeres et al., 1996) mutants were subjected to phenotype rescue analysis by treatments with BL and ABRASIN. As a negative control, dimethylsulfoxide (DMSO) was used. Plants were germinated in vitro for 5 days on ½ MS containing DMSO medium and from day 6th to day 11th they were transferred on medium supplemented with BL (10 nM, 100 nM, 1000 nM), ABRASIN (5 μM, 10 μM, 30 μM) or DMSO. Cotyledons and leaves were collected for flowcytometric analysis at the 11th day (i.e. 6 days of treatments). Samples for β-glucuronidase (GUS) assay were taken on day 6th (i.e. 1 day treatments), 8th (i.e. 3 days treatments), 10th (i.e. 5 days treatments). Rescue of soil-grown mutants at different growth stages was checked by watering bri1-116 and cpd mutants with either BL or 2 ml 300 μM ABRASIN per day.

[4] = system: cpd, det2-1, bri1-116 and bri1-301 mutants; assay: Hypocotyl-elongation assay of dark-grown BR mutants; format: in vivo, Arabidopsis thaliana; settings: grown in the dark, 50 μM abrasin
Description: FIG. 6: Rescue of dark-grown BL mutants after treatment with 50 μM of abrasin (I5).
For further phenotypical analysis, all plants were grown on vertically oriented square plates (Greiner Labortechnik, Austria) with solid medium derived from standard Murashige and Skoog medium under the same conditions. For the hypocotyl-elongation assay, plants were grown in the dark at 22° C. under the same conditions.

O=C(O)CCC(=O)Nc1ccc(Br)cn1 [abrasin, 4-[(5-bromo-2-pyridinyl)amino]-4-oxobutanoic acid]
expression of genes downstream of the BRI1 receptor ([1]; 30 μM, 2 hours): all genes are upregulated | expression of genes involved in biosynthesis and perception ([1]; 30 μM, 2 hours): regulated in the same way as a BL-treatment | RNA levels of BR biosynthetic, signaling and BR-induced genes ([1]; 3-day-old seedlings, Abrasin 30 μM, 6 hours, compared to BL 1 μM): the expression profiles resembled closely those of BL treatment | EC50 [2]: 20 µM | phenotype change of soil-grown mutant [3]: sufficient to slightly change the phenotype of 1 month-old bri1-116 plants in a week | hypocotyl length of dark-grown mutants [4]: all mutant lines had hypocotyls of normal length
